Test results from patent publication US20250270251A1, “PROCESS FOR THE PREPARATION OF […] HAVING A DEFINITE PARTICLE SIZE DISTRIBUTION AND A IRREGULAR HEXAGON PLATES CRYSTAL HABIT” (F.I.S. - FABBRICA ITALIANA SINTETICI S.P.A., priority 2020, published 2025).

Assays:
Format in all cases: physicochemical
[1] = DSC comparative study of crystal habits; details: irregular hexagon plates versus non-irregular hexagon plates crystals; from DSC onset and peak
Protocol: DSC analysis was recorded with a Mettler DSC822e. A sample of compound was charged into a 40 μL aluminium crucible with a pinhole lid and was heated, under nitrogen (50 mL/min), at 10° C./min from 30 to 300° C.
DSC testing was performed in a sealed medium pressure stainless steel crucible. All the testing was performed by heating the sample from 30° C. at a rate of 10° C./minute up to a maximum temperature of 300° C.

[2] = Particle size distribution (PSD) with a Malvern Mastersizer 3000
Protocol: Particle size distribution (PSD): In particular, particle size distribution was determined with a Malvern Mastersizer 3000, and the other parameters used are reported in table below: […]

[3] = Microscopy analysis (SEM) for identification of crystal habit and size; details: crystallized with a C2-C5 alkyl alcohol, examples 2 to 9
Protocol: The mean square weight means is determined by chord-length distribution analysis of Trenbolone Acetate of formula (I), in particular, was through by scanning electron microscopy (SEM).
Microscopy analysis: the solid of Trenbolone Acetate (I) was analysed by microscopy for identification of crystal habits.
Microscope was recorded with a Zeiss Evo MA10 scanning electron microscope. A sample of powder has been gold spattered and observed by SEM at different magnification, micrographs have been collected at same conditions and magnification (20 kV, HDBSD, Variable Pressure). All the samples have been observed after same treatment and same time after preparation.

[4] = Example 12, crystallization from isopropanol, seed D10 4-12, D50 12-29, D90 <76 μm
[5] = Example 13, recrystallization from IPA, seed D10 2-5, D50 10-20, D90 25-51 μm

CC(=O)O[C@H]1CC[C@H]2[C@@H]3CCC4=CC(=O)CCC4=C3C=C[C@]12C [Compound (I), 17beta-acetoxy-estra-4,9,11-triene-3-one]
thermodynamic stability of the crystal habit [1]: thermodynamically more stable | PSD D50 ([2]; Example 2, crystallization from isopropanol, seeded at 20-25 °C): 67-130 μm | PSD D10 [2, 4]: 15-40 μm | PSD D50 [2, 4]: 67-130 μm | PSD D90 [2, 4]: 350 μm | PSD D10 [2, 5]: 15-40 μm | PSD D50 [2, 5]: 67-130 μm | PSD D90 [2, 5]: 300 μm | size range of thin irregular hexagon plates [3]: 20-200 micron
